The values that follow come from patent US8263605B2, “Modulators of muscarinic receptors” (Vertex Pharmaceutical Incorporated, priority 2006, dated 2012).

Molecules are shown by their SMILES.

One assay addresses T1, M4 muscarinic receptor (Homo sapiens, UniProt P08173).
T1 construct: expressed in transfected cells; host or cells: CHO (M4-CHO)
T1 sequence (P08173 1-479): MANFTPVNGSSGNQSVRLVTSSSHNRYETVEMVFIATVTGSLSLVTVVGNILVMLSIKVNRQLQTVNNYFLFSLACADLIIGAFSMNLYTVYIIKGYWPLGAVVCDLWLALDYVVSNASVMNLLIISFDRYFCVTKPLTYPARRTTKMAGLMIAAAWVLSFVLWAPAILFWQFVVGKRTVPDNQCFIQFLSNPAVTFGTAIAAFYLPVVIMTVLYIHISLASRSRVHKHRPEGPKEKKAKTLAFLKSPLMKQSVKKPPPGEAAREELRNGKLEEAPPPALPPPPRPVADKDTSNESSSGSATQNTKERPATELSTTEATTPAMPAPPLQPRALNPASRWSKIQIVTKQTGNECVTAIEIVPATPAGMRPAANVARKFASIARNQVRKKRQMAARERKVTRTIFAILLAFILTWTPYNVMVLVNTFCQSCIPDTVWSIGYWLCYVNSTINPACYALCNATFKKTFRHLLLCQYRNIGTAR
Kind of assay: Functional mobilization of intracellular calcium (FLIPR), M4-CHO cells. To be noted: for Emax: 100% efficacy is the maximum response obtained with the Carbachol control; for M4 Activity: CHO cells expressing M4, calcium mobilization. The format is cell-based. How it is done: (§1) Functional Mobilization of Intracellular Calcium to Determine Muscarinic Receptor Activity:
(§2) CHO cells expressing muscarinic receptors (M1 to M5) are grown as monolayers in tissue culture flasks at 37° C. in a humidified atmosphere containing 5% CO2 and passaged every 3-5 days. The growth media is Dulbecco's modified eagles medium (DMEM, Gibco Cat#12430-054), containing 25 mM Hepes and supplemented with Fetal Bovine Serum (Hyclone, cat# SH30071.03), 0.1 mM of MEM non-essential amino acids (GIBCO, Cat#11140-050), 1 mM MEM Sodium Pyruvate (GIBCO Cat#11360-070) and 100 units/ml of Penicillin G and 100 μg/ml of Streptomycin (GIBCO Cat#15140-122). The recombinant muscarinic receptor cell lines are grown under antibiotic pressure with media containing 25 μg/ml zeocin and 500 μg/ml G418 (M1-CHO), 4 μg/ml puromycin, 50 μg/ml zeocin and 2.5 μg/ml blasticidin (M2 and M4-CHO) or 50 μg/ml zeocin and 4 μg/ml puromycin (M3 and M5-CHO).
(§3) Cells are harvested at 80-90% confluence using Versene (GIBCO Cat#15040-066), collected by centrifugation and seeded 18-24 hours prior to running the calcium assay at a density of 5,000-10,000 cells/well in […], clear-bottomed 384-well plates (BD Biocoat, poly-D-lysine, Cat#356663). The day of the experiment, the cells are washed with a plate washer (Bioteck Instrunents, ELX 405) using bath 1 buffer (140-mM NaCl, 4.5-mM KCl, 2-mM CaCl2, 1-mM MgCl2, 10-mM Hepes-Na, 10-mM Glucose, pH 7.4, with NaOH) containing 1 mM Probenecid. Next, the calcium dye Fluo-3 (25 μl/well of Fluo-3 AM at 4 μM, Molecular Probes F-1241, in Bath 1 buffer containing 1 mM Probenecid) is added to the 25 μl of Bath 1 remaining in each well after the plate wash and the dye is loaded at 37° C. in the tissue culture incubator for 60-90 min. The fluorescent dye is removed using the plate washer with Bath 1 containing 1 mM Probenecid, leaving 25 μl/well of this solution after the wash. Alternatively, cells can be loaded with the calcium indicator from Molecular Devices (Calcium 3 Assay Reagents, Cat # R7181) adding 5 μl of a 5× solution dye in Bath 1 containing 1 mM Probenecid (10 ml per dye flask cat# R7182 to generate a solution 20×) to 20 μl of the same buffer. After loading for 60 min, the experiment can be run without having to remove the dye.
(§4) Compounds are prepared at a 2× fold concentration in a 96-well plate (round bottom, Costar Corning cat#3656), by reconstituting the pre-spotted compounds in bath 1 containing 1 mM probenecid. The final concentration DMSO is 0.5%, and the amount of DMSO is normalized across the assay plate. To determine an agonist action of the compounds on muscarinic receptors, the reconstituted compounds are added (25 μl compound/well) to the cell assay plate (containing 25 μl/well) using the multi-channel robotic system of the FLIPR 3 Instrument (Molecular Devices, Sunnyvale, Calif.). To determine a functional inhibitory action of the compounds on muscarinic receptors, the reconstituted compounds are added (25 μl compound/well) to the assay plate and pre-incubated for 15 min prior to adding 25 μl of Carbachol at 3× the EC80 for each muscarinic subtype. Alternatively, the compounds can be co-applied simultaneously with the agonist. In both assay modes, the fluorescence is recorded for 60 sec (excitation wavelength is […] and emission wavelength 540 nm) using the FLIPR 3 instrument.
(§5) The potency, efficacy and selectivity of the muscarinic compounds were evaluated by screening the compound activity across the whole family (M1 to M5 cells). Compounds were also screened for activity on other proteins such as other GPCRs and ion channels to determine selectivity on M4 receptors.
(§6) Examples of activities and efficacies of the muscarinic compounds of formulae (I, Ia, Ib, Ic, Id, and Ie) on modulating M1 and M4 receptors are shown below in Table 4. […]
(A change in cytosolic calcium serves as a functional read-out for many receptors and channels.)

Another assay addresses T2, M1 muscarinic receptor (Homo sapiens, UniProt P11229).
T2 construct: expressed in transfected cells; host or cells: CHO (M1-CHO)
T2 sequence (P11229 1-460): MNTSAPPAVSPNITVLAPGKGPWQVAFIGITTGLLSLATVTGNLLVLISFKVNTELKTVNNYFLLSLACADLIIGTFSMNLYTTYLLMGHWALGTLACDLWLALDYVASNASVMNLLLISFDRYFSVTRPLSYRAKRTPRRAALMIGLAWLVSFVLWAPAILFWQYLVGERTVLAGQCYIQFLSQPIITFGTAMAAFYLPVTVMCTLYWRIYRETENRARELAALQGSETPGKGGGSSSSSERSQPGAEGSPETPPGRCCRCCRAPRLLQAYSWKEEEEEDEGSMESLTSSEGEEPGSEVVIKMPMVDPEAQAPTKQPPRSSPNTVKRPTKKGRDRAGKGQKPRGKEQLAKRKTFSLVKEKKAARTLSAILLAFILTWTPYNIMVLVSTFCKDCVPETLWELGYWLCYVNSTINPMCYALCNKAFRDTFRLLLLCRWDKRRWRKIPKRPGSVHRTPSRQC
Kind of assay: Functional mobilization of intracellular calcium (FLIPR), M1-CHO cells. The assay is classed as cell-based. Particulars: for Emax: 100% efficacy is the maximum response obtained with the Carbachol control; for M1 Activity: CHO cells expressing M1, calcium mobilization. How it is done:
as §1, §2, §3, §4, §5, §6

For orientation: Emax means the maximal effect, on the per cent scale that the assay sets. `CN(C)C(=O)N1CC2(CCN(C3CCCN(C(=O)OCC(F)F)CC3)CC2)c2ccccc21` (stereo not shown) [compound 71]: on M4 muscarinic receptor, the Emax was 25 to 100% and the “M4 Activity” value is “+++ (activity was measured to be less than 2.0 μM)”. On M1 muscarinic receptor, the Emax was 25 to 100% and the “M1 Activity” value is listed as “+++ (activity was measured to be less than 2.0 μM)”.

On to `CCc1nsc(N2CCC(N3CCC4(CCN(C(=O)N(C)C)c5ccccc54)CC3)CC2)n1` [compound 7], for which, at M4 muscarinic receptor, the Emax was 25 to 100% and the “M4 Activity” value was “+++ (activity was measured to be less than 2.0 μM)”. Moreover, on M1 muscarinic receptor, the Emax was in the range of 25 to 100% and the “M1 Activity” value is “+++ (activity was measured to be less than 2.0 μM)”.

Take `CC#CCOC(=O)N1C2CCC1CC(N1CCC3(CCN(C(=O)N(C)C)c4ccccc43)CC1)C2` (stereo not shown) [compound 29]: at M4 muscarinic receptor, the Emax fell in the range of 25 to 100% and the “M4 Activity” value is reported as “+++ (activity was measured to be less than 2.0 μM)”. In addition, on M1 muscarinic receptor, the maximal effect (Emax) is > 100% and the “M1 Activity” value is given as “+++ (activity was measured to be less than 2.0 μM)”.

Consider `CCOC(=O)N1CC[C@H](CN2CCC3(CC2)CN(C(=O)N(C)C)c2ccccc23)C1` [compound 60], for which, on M4 muscarinic receptor, the Emax was in the range of 25 to 100% and the “M4 Activity” value was “+++ (activity was measured to be less than 2.0 μM)”. On M1 muscarinic receptor, the maximal response (Emax) fell in the range of 25 to 100% and the “M1 Activity” value is given as “+++ (activity was measured to be less than 2.0 μM)”.

As to `CCCOC(=O)N1CC[C@H](CN2CCC3(CC2)CN(C(=O)N(C)C)c2ccccc23)C1` [compound 61], on M4 muscarinic receptor, the Emax lay within 25 to 100% and the “M4 Activity” value is recorded as “+++ (activity was measured to be less than 2.0 μM)”. Further, on M1 muscarinic receptor, the Emax is < 25% and the “M1 Activity” value is recorded as “++ (activity was measured to be from 2.0 μM to 10.0 μM)”.

With `COCCOC(=O)N1CC[C@@H](CN2CCC3(CC2)CN(C(=O)N(C)C)c2ccccc23)C1` [compound 58], on M4 muscarinic receptor, the maximal effect (Emax) was in the range of 25 to 100% and the “M4 Activity” value is listed as “+++ (activity was measured to be less than 2.0 μM)”. On M1 muscarinic receptor, the Emax was in the range of 25 to 100% and the “M1 Activity” value was “++ (activity was measured to be from 2.0 μM to 10.0 μM)”.

On to `CN(C)C(=O)N1CC2(CCN(C[C@H]3CCN(c4cnccn4)C3)CC2)c2ccccc21` [compound 108], for which, on M4 muscarinic receptor, the Emax was > 100% and the “M4 Activity” value is reported as “+++ (activity was measured to be less than 2.0 μM)”. Besides, at M1 muscarinic receptor, the Emax lay within 25 to 100% and the “M1 Activity” value is “+++ (activity was measured to be less than 2.0 μM)”.

Consider `CC#CCOC(=O)N1CCC(N2CCC3(CCN(C(=O)N(C)C)c4ccccc43)CC2)CC1` [Compound No. 5, but-2-ynyl 4-(1′-(dimethylcarbamoyl)-2′,3′-dihydro-1′H-spiro[piperidine-4,4′-quinoline]-1-yl)piperidine-1-carboxylate], for which, on M4 muscarinic receptor, the Emax is 25 to 100% and the “M4 Activity” value is given as “+++ (activity was measured to be less than 2.0 μM)”. In addition, at M1 muscarinic receptor, the Emax was 25 to 100% and the “M1 Activity” value is “+++ (activity was measured to be less than 2.0 μM)”.

As for `CN(C)C(=O)N1CC2(CCN(C3CCN(c4nc5ccccc5s4)CC3)CC2)c2ccccc21` [compound 117], on M4 muscarinic receptor, the Emax was < 25% and the “M4 Activity” value is “++ (activity was measured to be from 2.0 μM to 10.0 μM)”. On M1 muscarinic receptor, the Emax was < 25% and the “M1 Activity” value is listed as “+ (activity was measured to be greater than 10.0 μM)”.

Regarding `CCC#CCOC(=O)N1CC[C@@H](CN2CCC3(CC2)CN(C(=O)N(C)C)c2ccccc23)C1` [compound 99], at M4 muscarinic receptor, the Emax is > 100% and the “M4 Activity” value is given as “+++ (activity was measured to be less than 2.0 μM)”. At M1 muscarinic receptor, the Emax fell in the range of 25 to 100% and the “M1 Activity” value was “+++ (activity was measured to be less than 2.0 μM)”.

On to `COCCOC(=O)N1C2CCC1CC(N1CCC3(CC1)CN(C(=O)N(C)C)c1ccccc13)C2` (stereo not shown) [compound 50], for which, on M4 muscarinic receptor, the Emax lay in the range of 25 to 100% and the “M4 Activity” value is given as “+++ (activity was measured to be less than 2.0 μM)”. At M1 muscarinic receptor, the Emax was in the range of 25 to 100% and the “M1 Activity” value is “+++ (activity was measured to be less than 2.0 μM)”.

As to `CN(C)C(=O)N1CCC2(CCN(C3CCN(c4nncs4)CC3)CC2)c2ccccc21` [compound 21], on M4 muscarinic receptor, the maximal response (Emax) was < 25% and the “M4 Activity” value was “++ (activity was measured to be from 2.0 μM to 10.0 μM)”. On M1 muscarinic receptor, the Emax was in the range of 25 to 100% and the “M1 Activity” value was “++ (activity was measured to be from 2.0 μM to 10.0 μM)”.

With `COCCOC(=O)N1CCCC(N2CCC3(CC2)CN(C(=O)N(C)C)c2ccccc23)CC1` (stereo not shown) [compound 72], on M4 muscarinic receptor, the Emax lay in the range of 25 to 100% and the “M4 Activity” value is given as “+++ (activity was measured to be less than 2.0 μM)”. At M1 muscarinic receptor, the Emax is 25 to 100% and the “M1 Activity” value is recorded as “+++ (activity was measured to be less than 2.0 μM)”.

Regarding `CN(C)C(=O)N1CC2(CCN(C3CCN(c4ncns4)CC3)CC2)c2ccccc21` [compound 75], at M4 muscarinic receptor, the Emax was in the range of 25 to 100% and the “M4 Activity” value is on record as “+++ (activity was measured to be less than 2.0 μM)”. For the same compound, at M1 muscarinic receptor, the Emax fell in the range of 25 to 100% and the “M1 Activity” value is given as “++ (activity was measured to be from 2.0 μM to 10.0 μM)”.

Regarding `CCOC(=O)N1CCC(N2CCC3(CCN(C(C)=O)c4ccccc43)CC2)CC1` [Compound No. 11, ethyl 4-(1′-acetyl-2′,3′-dihydro-1′H-spiro[piperidine-4,4′-quinoline]-1-yl)piperidine-1-carboxylate], on M4 muscarinic receptor, the Emax is > 100% and the “M4 Activity” value is on record as “+++ (activity was measured to be less than 2.0 μM)”. Besides, on M1 muscarinic receptor, the Emax was > 100% and the “M1 Activity” value is on record as “+++ (activity was measured to be less than 2.0 μM)”.

As for `CC#CCOC(=O)N1CCC(N2CCC3(CCN(C(C)=O)c4ccccc43)CC2)CC1` [compound 13], at M4 muscarinic receptor, the Emax lay within 25 to 100% and the “M4 Activity” value is reported as “+++ (activity was measured to be less than 2.0 μM)”. On M1 muscarinic receptor, the Emax was 25 to 100% and the “M1 Activity” value is listed as “+++ (activity was measured to be less than 2.0 μM)”.
